Our source for the inhibition values is PMC9516332 (Frontiers in Oncology, 2022).

The structures appear in SMILES notation.

Test in all cases: Kinase panel profiling at 1 µmol/L (MSA or IMAP), percentage inhibition
Common to all, as to type: biochemical

Assay [1] addresses panel of 255 wild-type kinases (Homo sapiens, UniProt Q9HC98). The conditions noted are these: NEK6; 1 µmol/L single concentration; read-out: %-inhibition, NEK6.
Assay [2] deals with T1, panel of 255 wild-type kinases (Homo sapiens, UniProt Q9UHD2).
T1 sequence (Q9UHD2 1-729): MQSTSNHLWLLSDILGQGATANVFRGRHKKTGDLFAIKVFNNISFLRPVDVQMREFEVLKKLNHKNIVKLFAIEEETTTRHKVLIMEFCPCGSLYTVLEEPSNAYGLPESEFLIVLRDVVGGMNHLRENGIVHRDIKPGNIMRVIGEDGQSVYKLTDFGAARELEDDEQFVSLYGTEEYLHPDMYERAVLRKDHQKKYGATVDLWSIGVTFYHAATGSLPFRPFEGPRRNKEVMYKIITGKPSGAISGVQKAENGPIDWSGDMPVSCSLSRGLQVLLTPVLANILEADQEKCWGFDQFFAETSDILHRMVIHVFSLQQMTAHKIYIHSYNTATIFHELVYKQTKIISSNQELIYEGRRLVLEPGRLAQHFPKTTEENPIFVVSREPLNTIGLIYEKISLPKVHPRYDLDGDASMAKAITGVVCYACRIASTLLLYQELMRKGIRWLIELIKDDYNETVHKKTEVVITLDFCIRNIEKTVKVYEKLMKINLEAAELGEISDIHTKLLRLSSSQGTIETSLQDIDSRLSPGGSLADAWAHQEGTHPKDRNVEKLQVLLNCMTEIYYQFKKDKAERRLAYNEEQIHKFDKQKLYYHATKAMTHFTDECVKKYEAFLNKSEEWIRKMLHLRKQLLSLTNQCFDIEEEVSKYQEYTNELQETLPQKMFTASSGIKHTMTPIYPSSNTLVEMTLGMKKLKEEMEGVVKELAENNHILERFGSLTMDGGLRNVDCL
The conditions noted are these: kinase TBK1; 1 µmol/L single concentration; read-out: %-inhibition at 1 µmol/L, TBK1.

For assay [3], the target named is T2, panel of 255 wild-type kinases (Homo sapiens, UniProt O15530).
T2 sequence (O15530 1-556): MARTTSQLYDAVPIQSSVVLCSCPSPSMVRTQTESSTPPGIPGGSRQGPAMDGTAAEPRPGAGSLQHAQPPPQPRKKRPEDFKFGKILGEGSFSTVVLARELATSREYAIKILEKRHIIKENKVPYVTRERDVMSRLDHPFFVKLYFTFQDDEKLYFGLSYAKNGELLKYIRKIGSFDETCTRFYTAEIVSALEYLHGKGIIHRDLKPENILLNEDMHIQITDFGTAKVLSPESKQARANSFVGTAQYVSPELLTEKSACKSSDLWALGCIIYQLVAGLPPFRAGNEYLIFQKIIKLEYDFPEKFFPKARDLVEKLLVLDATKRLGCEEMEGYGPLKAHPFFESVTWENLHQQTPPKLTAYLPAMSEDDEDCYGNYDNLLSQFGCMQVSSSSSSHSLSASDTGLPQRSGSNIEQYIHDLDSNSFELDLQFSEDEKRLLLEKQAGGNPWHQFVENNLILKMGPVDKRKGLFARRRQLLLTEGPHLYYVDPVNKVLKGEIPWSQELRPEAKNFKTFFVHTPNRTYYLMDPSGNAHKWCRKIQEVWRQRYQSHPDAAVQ
The conditions noted are these: kinase PDK1; 1 µmol/L single concentration; read-out: %-inhibition at 1 µmol/L, PDK1.

Assay [4] deals with panel of 255 wild-type kinases (Homo sapiens, UniProt P49674). As to conditions: kinase CK1ε; 1 µmol/L single concentration; read-out: %-inhibition at 1 µmol/L, CK1ε.
The target in assay [5] is panel of 255 wild-type kinases (Homo sapiens, UniProt Q9P289). The conditions noted are these: MST4; 1 µmol/L single concentration; read-out: %-inhibition, MST4.
Assay [6] concerns the target panel of 255 wild-type kinases (Homo sapiens, UniProt Q15375). The conditions noted are these: kinase EPHA7; 1 µmol/L single concentration; read-out: %-inhibition at 1 µmol/L, EPHA7.
Assay [7] concerns the target panel of 255 wild-type kinases (Homo sapiens, UniProt Q13464). As to conditions: kinase ROCK1; 1 µmol/L single concentration; read-out: %-inhibition at 1 µmol/L, ROCK1.
The target of assay [8] is panel of 255 wild-type kinases (Homo sapiens, UniProt Q08345). The conditions noted are these: kinase DDR1; 1 µmol/L single concentration; read-out: %-inhibition at 1 µmol/L, DDR1.
Assay [9] addresses panel of 255 wild-type kinases (Homo sapiens, UniProt P42685). As to conditions: kinase FRK; 1 µmol/L single concentration; read-out: %-inhibition at 1 µmol/L, FRK.
The target of assay [10] is panel of 255 wild-type kinases (Homo sapiens, UniProt Q9P0L2). The conditions noted are these: MARK1; 1 µmol/L single concentration; read-out: %-inhibition, MARK1.
The target of assay [11] is panel of 255 wild-type kinases (Homo sapiens, UniProt O96013). The conditions noted are these: PAK4; 1 µmol/L single concentration; read-out: %-inhibition, PAK4.
Assay [12] has as its target panel of 255 wild-type kinases (Homo sapiens, UniProt P49137). The conditions noted are these: kinase MAPKAPK2; 1 µmol/L single concentration; read-out: %-inhibition at 1 µmol/L, MAPKAPK2.
For assay [13], the target named is T3, panel of 255 wild-type kinases (Homo sapiens, UniProt Q9NWZ3).
T3 sequence (Q9NWZ3 1-460): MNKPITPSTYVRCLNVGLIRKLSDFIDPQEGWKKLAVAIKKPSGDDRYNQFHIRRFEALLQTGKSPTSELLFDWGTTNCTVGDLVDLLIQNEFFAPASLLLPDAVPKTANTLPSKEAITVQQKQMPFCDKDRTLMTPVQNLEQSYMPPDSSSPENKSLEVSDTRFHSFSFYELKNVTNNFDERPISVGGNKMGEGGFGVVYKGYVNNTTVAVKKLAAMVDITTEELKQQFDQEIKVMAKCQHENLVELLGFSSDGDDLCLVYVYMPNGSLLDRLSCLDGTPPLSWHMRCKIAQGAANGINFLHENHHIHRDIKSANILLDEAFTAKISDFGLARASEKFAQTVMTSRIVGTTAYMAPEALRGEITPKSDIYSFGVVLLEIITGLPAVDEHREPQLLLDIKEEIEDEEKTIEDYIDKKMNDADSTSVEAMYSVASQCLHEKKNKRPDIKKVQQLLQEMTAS
The conditions noted are these: kinase IRAK4; 1 µmol/L single concentration; read-out: %-inhibition at 1 µmol/L, IRAK4.

`Cc1nc(NC(=O)N2CCC[C@H]2C(N)=O)sc1-c1ccnc(C(C)(C)C(F)(F)F)c1` [alpelisib]: the inhibition at 1 µM in assay [1] is 0.343%; in assay [2], -2.72%; in [3] it was -0.422%; in [4], -2.48%; in assay [5], -12%; in assay [6], -1.3%. Besides, the inhibition at 1 µM is -0.415% in [7]; 3.8% in assay [8]; -2.26% in [9]; -0.158% in assay [10]; 0.0966% in assay [11]; -16% in assay [12]. For the same compound, in [13], the inhibition at 1 µM was -3.77%.
For `Cn1cc(-c2cc3c(N4CCN(c5ncc([C@@](C)(N)c6ccc(F)cc6)cn5)CC4)ncnn3c2)cn1` [avapritinib], the inhibition at 1 µM in assay [1] is -1.13%; in assay [2], -1.13%; in [3] it was 6.57%; in assay [4], 2.14%; in [5] it was 7%; in [6] it was 13%. Besides, the inhibition at 1 µM in assay [7] is 2%; in assay [9] it was 25%; in assay [10], -10%; in assay [11] it was 8%; in [12] it was -0.02%; in assay [13], 12%.
`Cn1cnc2c(F)c(Nc3ccc(Br)cc3F)c(C(=O)NOCCO)cc21` [binimetinib]: the inhibition at 1 µM was -2.65% in [1]; 0.416% in assay [2]; 0.386% in [3]; -3.48% in assay [4]; 0.492% in assay [5]; 0.598% in [6]. Also, the inhibition at 1 µM is -7% in assay [7]; -0.162% in assay [8]; 3% in [9]; 0.905% in [10]; -2.71% in assay [11]; -13% in [12]. For the same compound, in assay [13], the inhibition at 1 µM stood at 1.26%.
As to `CN1CCN(c2ccc(C(=O)Nc3n[nH]c4ccc(Cc5cc(F)cc(F)c5)cc34)c(NC3CCOCC3)c2)CC1` [entrectinib], the inhibition at 1 µM in assay [1] is -1.86%; in assay [2], 8%; in [3], 0.207%; in assay [4], 10%; in assay [5], 6%; in assay [6], 44%. The inhibition at 1 µM is 4.51% in [7]; 99% in assay [8]; 96% in [9]; 19% in assay [10]; -14% in assay [12]; 8% in assay [13].
Take `CCN1CCN(c2ccc(Nc3cc(N(C)C(=O)Nc4c(Cl)c(OC)cc(OC)c4Cl)ncn3)cc2)CC1` [infigratinib]: the inhibition at 1 µM in [1] was -2.62%; in [2], -4%; in assay [3] it was 1.36%; in assay [4], -6.49%; in assay [5], -10%; in assay [6], -4%. In addition, the inhibition at 1 µM in [7] was 0.396%; in [8], 96%; in assay [10], -9%; in assay [11], 6%; in assay [12] it was -32%; in [13], -1.22%.
As for `C[C@H]1Oc2cc(cnc2N)-c2c(nn(C)c2C#N)CN(C)C(=O)c2ccc(F)cc21` [lorlatinib], the inhibition at 1 µM was -0.382% in assay [1]; -1.23% in assay [2]; 0.602% in assay [3]; 0.583% in assay [4]; -8% in assay [5]; 56% in assay [6]. The inhibition at 1 µM in assay [7] is 3.64%; in [10] it was 11%; in assay [11] it was 1.84%; in assay [12] it was -14%; in [13], -1.47%.
